Reference: ChEMBL document CHEMBL4613211, “Aurone: A biologically attractive scaffold as anticancer agent” (Eur J Med Chem, 2019)

Tests used:
Format in all cases: functional
ACHN = experiment: Growth inhibition of human ACHN cells at 10 uM after 48 hrs by sulforhodamine B assay relative to control; details: read-out: GI
COLO 205 = experiment: Growth inhibition of human COLO205 cells at 10 uM after 48 hrs by sulforhodamine B assay relative to control; details: COLO 205, 48 h, read-out: GI
SK-MEL-28 = experiment: Growth inhibition of human SK-MEL-28 cells at 10 uM after 48 hrs by sulforhodamine B assay relative to control; details: SK-MEL-28, 48 h, read-out: GI
RPMI-8226 = experiment: Growth inhibition of human RPMI8226 cells at 10 uM after 48 hrs by sulforhodamine B assay relative to control; details: RPMI-8226, 48 h, read-out: GI
HOP-62 = experiment: Growth inhibition of human HOP62 cells at 10 uM after 48 hrs by sulforhodamine B assay relative to control; details: HOP-62, 48 h, read-out: GI
HCT-15 = experiment: Growth inhibition of human HCT15 cells at 10 uM after 48 hrs by sulforhodamine B assay relative to control; details: HCT-15, 48 h, read-out: GI
NCI-H460 = experiment: Growth inhibition of human NCI-H460 cells at 10 uM after 48 hrs by sulforhodamine B assay relative to control; details: NCI-H460, 48 h, read-out: GI
OVCAR-8 = experiment: Growth inhibition of human OVCAR8 cells at 10 uM after 48 hrs by sulforhodamine B assay relative to control; details: OVCAR-8, 48 h, read-out: GI
KM12 = experiment: Growth inhibition of human KM12 cells at 10 uM after 48 hrs by sulforhodamine B assay relative to control; details: KM12, 48 h, read-out: GI
SF-295 = experiment: Growth inhibition of human SF295 cells at 10 uM after 48 hrs by sulforhodamine B assay relative to control; details: SF-295, 48 h, read-out: GI
DU-145 = experiment: Growth inhibition of human DU145 cells at 10 uM after 48 hrs by sulforhodamine B assay relative to control; details: DU-145, 48 h, read-out: GI
786-0 = experiment: Growth inhibition of human 786-0 cells at 10 uM after 48 hrs by sulforhodamine B assay relative to control; details: 786-0, 48 h, read-out: GI
HL-60(TB) = experiment: Growth inhibition of human HL-60(TB) cells at 10 uM after 48 hrs by sulforhodamine B assay relative to control; details: HL-60, 48 h, read-out: GI
NCI-H522 = experiment: Growth inhibition of human NCI-H522 cells at 10 uM after 48 hrs by sulforhodamine B assay relative to control; details: NCI-H522, 48 h, read-out: GI
OVCAR-4 = experiment: Growth inhibition of human OVCAR4 cells at 10 uM after 48 hrs by sulforhodamine B assay relative to control; details: OVCAR-4, 48 h, read-out: GI
HT-29 = experiment: Growth inhibition of human HT-29 cells at 10 uM after 48 hrs by sulforhodamine B assay relative to control; details: HT-29, 48 h, read-out: GI
CAKI-1 = experiment: Growth inhibition of human CAKI-1 cells at 10 uM after 48 hrs by sulforhodamine B assay relative to control; details: CAKI-1, 48 h, read-out: GI
BT-549 = experiment: Growth inhibition of human BT549 cells at 10 uM after 48 hrs by sulforhodamine B assay relative to control; details: BT-549, 48 h, read-out: GI
A549 = experiment: Growth inhibition of human A549/ATCC cells at 10 uM after 48 hrs by sulforhodamine B assay relative to control; details: A549, 48 h, read-out: GI
HCC 2998 = experiment: Growth inhibition of human HCC2998 cells at 10 uM after 48 hrs by sulforhodamine B assay relative to control; details: HCC 2998, 48 h, read-out: GI
HCT-116 = experiment: Growth inhibition of human HCT116 cells at 10 uM after 48 hrs by sulforhodamine B assay relative to control; details: HCT-116, 48 h, read-out: GI
M14 = experiment: Growth inhibition of human M14 cells at 10 uM after 48 hrs by sulforhodamine B assay relative to control; details: M14, 48 h, read-out: GI
MDA-MB-468 = experiment: Growth inhibition of human MDA-MB-468 cells at 10 uM after 48 hrs by sulforhodamine B assay relative to control; details: MDA-MB-468, 48 h, read-out: GI
Malme-3M = experiment: Growth inhibition of human MALME-3M cells at 10 uM after 48 hrs by sulforhodamine B assay relative to control; details: read-out: GI
CCRF-CEM = experiment: Growth inhibition of human CCRF-CEM cells at 10 uM after 48 hrs by sulforhodamine B assay relative to control; details: read-out: GI
SK-MEL-5 = experiment: Growth inhibition of human SK-MEL-5 cells at 10 uM after 48 hrs by sulforhodamine B assay relative to control; details: SK-MEL-5, 48 h, read-out: GI
OVCAR-5 = experiment: Growth inhibition of human OVCAR5 cells at 10 uM after 48 hrs by sulforhodamine B assay relative to control; details: OVCAR-5, 48 h, read-out: GI
NCI-H322M = experiment: Growth inhibition of human NCI-H322M cells at 10 uM after 48 hrs by sulforhodamine B assay relative to control; details: read-out: GI
EKVX = experiment: Growth inhibition of human EKVX cells at 10 uM after 48 hrs by sulforhodamine B assay relative to control; details: read-out: GI
LOX IMVI = experiment: Growth inhibition of human LOXIMVI cells at 10 uM after 48 hrs by sulforhodamine B assay relative to control; details: read-out: GI
Hs-578T = experiment: Growth inhibition of human Hs 578T cells at 10 uM after 48 hrs by sulforhodamine B assay relative to control; details: read-out: GI
RXF 393 = experiment: Growth inhibition of human RXF393 cells at 10 uM after 48 hrs by sulforhodamine B assay relative to control; details: RXF 393, 48 h, read-out: GI
A498 = experiment: Growth inhibition of human A498 cells at 10 uM after 48 hrs by sulforhodamine B assay relative to control; details: A498, 48 h, read-out: GI
NCI-H226 = experiment: Growth inhibition of human NCI-H226 cells at 10 uM after 48 hrs by sulforhodamine B assay relative to control; details: NCI-H226, 48 h, read-out: GI
SNB-19 = experiment: Growth inhibition of human SNB19 cells at 10 uM after 48 hrs by sulforhodamine B assay relative to control; details: SNB-19, 48 h, read-out: GI
MDA-MB-435 = experiment: Growth inhibition of human MDA-MB-435 cells at 10 uM after 48 hrs by sulforhodamine B assay relative to control; details: MDA-MB-435, 48 h, read-out: GI
SF-268 = experiment: Growth inhibition of human SF268 cells at 10 uM after 48 hrs by sulforhodamine B assay relative to control; details: SF-268, 48 h, read-out: GI

Measured: inhibition of growth at 10 µM

COc1ccc2c(c1)O/C(=C\c1ccc(OCC(=O)Nc3ccccc3)c(OC)c1)C2=O
18.9 to 27.1%: all assays above

COc1cc(/C=C2\Oc3cc4occc4c(OC)c3C2=O)ccc1OCC(=O)Nc1ccccc1
67.1 to 79.6%: all assays above
